This is an account of results in patent US12173020B2, “New-type oxazolidinone compounds and preparation method therefor” (priority 2019, dated 2024).

Assay [1] deals with vancomycin-resistant Enterococcus (VRE). In words: agar dilution method, inhibitory effect on VRE. It is filed as cell-based. As to conditions: for MIC50: Enterococcus, read-out: Minimum inhibitory concentration (MIC50, μg/ml) VRE. An excerpt:
(§1) In order to determine the antibacterial activity of these new oxazolidinone-based compounds, an agar dilution method was used to test the inhibitory effect on methicillin-resistant Staphylococcus aureus (MRSA) and vancomycin-resistant Enterococcus (VRE). The bacteria inhibition effect was expressed as minimum inhibitory concentration (MIC50, μg/ml) The test results are shown in the following table.

Assay [2] has as its system methicillin-resistant Staphylococcus aureus (MRSA). Description: agar dilution method, inhibitory effect on MRSA. Particulars: for MIC50: Staphylococcus aureus, read-out: Minimum inhibitory concentration (MIC50, μg/ml) MRSA. It is filed as cell-based.
Description: as §1

For the compound `CCCn1nnc(-c2ccc(-c3ccc(N4C[C@H](C(O)C(F)(F)F)OC4=O)cc3F)cn2)n1.O=P(O)(O)O` (stereo partly drawn) [compound 103, (R)-3-(3-fluoro-4-(6-(2-propyl-2H-tetrazol-5-yl)pyridin-3-yl)phenyl)-5-(1-hydroxy-2-trifluoroethyl) oxazolidin-2-one phosphate], the “Minimum inhibitory concentration (MIC50, μg/ml) VRE” value in assay [1] worked out at 0.7 µg/mL. Also, the “Minimum inhibitory concentration (MIC50, μg/ml) MRSA” value in assay [2] came to 0.7 µg/mL.
For `CCCn1nnc(-c2ccc(-c3ccc(N4C[C@@H](C(O)C(F)(F)F)OC4=O)cc3F)cn2)n1.O=P(O)(O)O` (stereo partly drawn) [compound 104, (S)-3-(3-fluoro-4-(6-(2-propyl-2H-tetrazol-5-yl)pyridin-3-yl)phenyl)-5-(1-hydroxy-2-trifluoroethyl) oxazolidin-2-one phosphate], the “Minimum inhibitory concentration (MIC50, μg/ml) VRE” value in assay [1] was determined as 0.5 µg/mL. The “Minimum inhibitory concentration (MIC50, μg/ml) MRSA” value in assay [2] is 0.5 µg/mL.
`CCCn1nnc(-c2ccc(-c3ccc(N4C[C@H](C(C)O)OC4=O)cc3F)cn2)n1.O=P(O)(O)O` (stereo partly drawn) [compound 105, (R)-3-(3-fluoro-4-(6-(2-propyl-2H-tetrazol-5-yl)pyridin-3-yl)phenyl)-5-(1-hydroxyethyl) oxazolidin-2-one phosphate]: the MIC50 in assay [1] came to 1.3 µg/mL; in assay [2], 1.4 µg/mL.
For `CCCn1nnc(-c2ccc(-c3ccc(N4C[C@@H](C(C)O)OC4=O)cc3F)cn2)n1.O=P(O)(O)O` (stereo partly drawn) [compound 106, (S)-3-(3-fluoro-4-(6-(2-propyl-2H-tetrazol-5-yl)pyridin-3-yl)phenyl)-5-(1-hydroxyethyl) oxazolidin-2-one phosphate], in that order: 1.2 µg/mL and 1 µg/mL.
As to `CCCn1nnc(-c2ccc(-c3ccc(N4C[C@H](C(O)CC)OC4=O)cc3F)cn2)n1.O=P(O)(O)O` (stereo partly drawn) [compound 107, (R)-3-(3-fluoro-4-(6-(2-propyl-2H-tetrazol-5-yl)pyridin-3-yl)phenyl)-5-(1-hydroxypropyl) oxazolidin-2-one phosphate], the MIC50 in assay [1] and in assay [2] was 0.8 µg/mL each time.
On to `CCCn1nnc(-c2ccc(-c3ccc(N4C[C@@H](C(O)CC)OC4=O)cc3F)cn2)n1.O=P(O)(O)O` (stereo partly drawn) [compound 108, (S)-3-(3-fluoro-4-(6-(2-propyl-2H-tetrazol-5-yl)pyridin-3-yl)phenyl)-5-(1-hydroxypropyl) oxazolidin-2-one phosphate], for which the MIC50 in assay [1] was 0.4 µg/mL; in assay [2], 0.5 µg/mL.
Taken in the same sequence, the figures for `CCCn1nnc(-c2ccc(-c3ccc(N4C[C@H](C(O)F)OC4=O)cc3F)cn2)n1.O=P(O)(O)O` (stereo partly drawn) [compound 109, (R)-3-(3-fluoro-4-(6-(2-propyl-2H-tetrazol-5-yl)pyridin-3-yl)phenyl)-5-(hydroxyfluoromethyl) oxazolidin-2-one phosphate] were 0.2 µg/mL and 0.2 µg/mL.
For `CCCn1nnc(-c2ccc(-c3ccc(N4C[C@@H](C(O)F)OC4=O)cc3F)cn2)n1.O=P(O)(O)O` (stereo partly drawn) [compound 110, (S)-3-(3-fluoro-4-(6-(2-propyl-2H-tetrazol-5-yl)pyridin-3-yl)phenyl)-5-(hydroxyfluoromethyl) oxazolidin-2-one phosphate], in that order: 0.2 µg/mL and 0.2 µg/mL.
On to `O=C1O[C@@H](C(O)C(F)(F)F)CN1c1ccc(-c2ccc(-c3nnn(C4CC4)n3)nc2)c(F)c1.O=P(O)(O)O` (stereo partly drawn) [compound 111, (R)-3-(3-fluoro-4-(6-(2-cyclopropyl-2H-tetrazol-5-yl)pyridin-3-yl)phenyl)-5-(1-hydroxy-2-trifluoroethyl) oxazolidin-2-one phosphate], for which, in assay [1], the “Minimum inhibitory concentration (MIC50, μg/ml) VRE” value was 0.3 µg/mL. Besides, the “Minimum inhibitory concentration (MIC50, μg/ml) MRSA” value in assay [2] was 0.3 µg/mL.
For the compound `O=C1O[C@H](C(OP(=O)(O)O)C(F)(F)F)CN1c1ccc(-c2ccc(-c3nnn(C4CC4)n3)nc2)c(F)c1` (stereo partly drawn) [compound 112, (S)-3-(3-fluoro-4-(6-(2-cyclopropyl-2H-tetrazol-5-yl)pyridin-3-yl)phenyl)-5-(1-hydroxy-2-trifluoroethyl) oxazolidin-2-one phosphate], in assay [1], the “Minimum inhibitory concentration (MIC50, μg/ml) VRE” value was 0.9 µg/mL. In assay [2], the “Minimum inhibitory concentration (MIC50, μg/ml) MRSA” value is 0.9 µg/mL.
`CC(O)[C@H]1CN(c2ccc(-c3ccc(-c4nnn(C5CC5)n4)nc3)c(F)c2)C(=O)O1.O=P(O)(O)O` (stereo partly drawn) [compound 113, (R)-3-(3-fluoro-4-(6-(2-cyclopropyl-2H-tetrazol-5-yl)pyridin-3-yl)phenyl)-5-(1-hydroxyethyl) oxazolidin-2-one phosphate]: the MIC50 in assay [1] and in assay [2] was 0.2 µg/mL throughout.
As for `CC(O)[C@@H]1CN(c2ccc(-c3ccc(-c4nnn(C5CC5)n4)nc3)c(F)c2)C(=O)O1.O=P(O)(O)O` (stereo partly drawn) [compound 114, (S)-3-(3-fluoro-4-(6-(2-cyclopropyl-2H-tetrazol-5-yl)pyridin-3-yl)phenyl)-5-(1-hydroxyethyl) oxazolidin-2-one phosphate], the MIC50 in assay [1] and in assay [2] was 0.3 µg/mL each time.
With `CCC(OP(=O)(O)O)[C@H]1CN(c2ccc(-c3ccc(-c4nnn(C5CC5)n4)nc3)c(F)c2)C(=O)O1` (stereo partly drawn) [compound 115, (R)-3-(3-fluoro-4-(6-(2-cyclopropyl-2H-tetrazol-5-yl)pyridin-3-yl)phenyl)-5-(1-hydroxypropyl)) oxazolidin-2-one phosphate], the “Minimum inhibitory concentration (MIC50, μg/ml) VRE” value in assay [1] came out at 0.5 µg/mL. Further, the “Minimum inhibitory concentration (MIC50, μg/ml) MRSA” value in assay [2] came to 0.5 µg/mL.
Consider `CCC(OP(=O)(O)O)[C@@H]1CN(c2ccc(-c3ccc(-c4nnn(C5CC5)n4)nc3)c(F)c2)C(=O)O1` (stereo partly drawn) [compound 116, (S)-3-(3-fluoro-4-(6-(2-cyclopropyl-2H-tetrazol-5-yl)pyridin-3-yl)phenyl)-5-(1-hydroxypropyl)) oxazolidin-2-one phosphate], for which the “Minimum inhibitory concentration (MIC50, μg/ml) VRE” value in assay [1] came to 0.3 µg/mL. Besides, in assay [2], the “Minimum inhibitory concentration (MIC50, μg/ml) MRSA” value is 0.2 µg/mL.
Taken in the same sequence, the figures for `O=C1O[C@@H](C(O)F)CN1c1ccc(-c2ccc(-c3nnn(C4CC4)n3)nc2)c(F)c1.O=P(O)(O)O` (stereo partly drawn) [compound 117] were 0.4 µg/mL and 0.4 µg/mL.
Regarding `O=C1O[C@H](C(F)OP(=O)(O)O)CN1c1ccc(-c2ccc(-c3nnn(C4CC4)n3)nc2)c(F)c1` (stereo partly drawn) [compound 118, (S)-3-(3-fluoro-4-(6-(2-cyclopropyl-2H-tetrazol-5-yl)pyridin-3-yl)phenyl)-5-(hydroxyfluoromethyl)) oxazolidin-2-one phosphate], the “Minimum inhibitory concentration (MIC50, μg/ml) VRE” value in assay [1] was 0.6 µg/mL. The “Minimum inhibitory concentration (MIC50, μg/ml) MRSA” value in assay [2] came out at 0.6 µg/mL.
Turning to `C=Cn1nnc(-c2ccc(-c3ccc(N4C[C@H](C(O)C(F)(F)F)OC4=O)cc3F)cn2)n1.O=P(O)(O)O` (stereo partly drawn) [compound 119, (R)-3-(3-fluoro-4-(6-(2-vinyl-2H-tetrazol-5-yl)pyridin-3-yl)phenyl)-5-(1-hydroxy-2-trifluoroethyl) oxazolidin-2-one phosphate], the “Minimum inhibitory concentration (MIC50, μg/ml) VRE” value in assay [1] was 0.7 µg/mL. Also, the “Minimum inhibitory concentration (MIC50, μg/ml) MRSA” value in assay [2] amounted to 0.7 µg/mL.
Regarding `C=Cn1nnc(-c2ccc(-c3ccc(N4C[C@@H](C(OP(=O)(O)O)C(F)(F)F)OC4=O)cc3F)cn2)n1` (stereo partly drawn) [compound 120, (S)-3-(3-fluoro-4-(6-(2-vinyl-2H-tetrazol-5-yl)pyridin-3-yl)phenyl)-5-(1-hydroxy-2-trifluoroethyl) oxazolidin-2-one phosphate], the “Minimum inhibitory concentration (MIC50, μg/ml) VRE” value in assay [1] stood at 0.2 µg/mL. Also, the “Minimum inhibitory concentration (MIC50, μg/ml) MRSA” value in assay [2] came to 0.2 µg/mL.
Regarding `C=Cn1nnc(-c2ccc(-c3ccc(N4C[C@H](C(C)O)OC4=O)cc3F)cn2)n1.O=P(O)(O)O` (stereo partly drawn) [compound 121, (R)-3-(3-fluoro-4-(6-(2-vinyl-2H-tetrazol-5-yl)pyridin-3-yl)phenyl)-5-(1-hydroxyethyl) oxazolidin-2-one phosphate], the MIC50 in assay [1] and in assay [2] was 1.1 µg/mL in each case.
For `C=Cn1nnc(-c2ccc(-c3ccc(N4C[C@@H](C(C)O)OC4=O)cc3F)cn2)n1.O=P(O)(O)O` (stereo partly drawn) [compound 122, (S)-3-(3-fluoro-4-(6-(2-vinyl-2H-tetrazol-5-yl)pyridin-3-yl)phenyl)-5-(1-hydroxyethyl) oxazolidin-2-one phosphate], the values for the MIC50 in assay [1] and in assay [2] were 0.9 µg/mL and 1 µg/mL, respectively.
Taken in the same sequence, the figures for `C=Cn1nnc(-c2ccc(-c3ccc(N4C[C@H](C(O)CC)OC4=O)cc3F)cn2)n1.O=P(O)(O)O` (stereo partly drawn) [compound 123, (R)-3-(3-fluoro-4-(6-(2-vinyl-2H-tetrazol-5-yl)pyridin-3-yl)phenyl)-5-(1-hydroxypropyl) oxazolidin-2-one phosphate] were 0.3 µg/mL and 0.3 µg/mL.
For `C=Cn1nnc(-c2ccc(-c3ccc(N4C[C@@H](C(O)CC)OC4=O)cc3F)cn2)n1.O=P(O)(O)O` (stereo partly drawn) [compound 124, (S)-3-(3-fluoro-4-(6-(2-vinyl-2H-tetrazol-5-yl)pyridin-3-yl)phenyl)-5-(1-hydroxypropyl) oxazolidin-2-one phosphate], in that order: 0.2 µg/mL and 0.2 µg/mL.
For `C=Cn1nnc(-c2ccc(-c3ccc(N4C[C@H](C(O)F)OC4=O)cc3F)cn2)n1.O=P(O)(O)O` (stereo partly drawn) [compound 125, (R)-3-(3-fluoro-4-(6-(2-vinyl-2H-tetrazol-5-yl)pyridin-3-yl)phenyl)-5-(hydroxyfluoromethyl) oxazolidin-2-one phosphate], the MIC50 in assay [1] and in assay [2] was 0.3 µg/mL each time.
`C=Cn1nnc(-c2ccc(-c3ccc(N4C[C@@H](C(O)F)OC4=O)cc3F)cn2)n1.O=P(O)(O)O` (stereo partly drawn) [compound 126, (S)-3-(3-fluoro-4-(6-(2-vinyl-2H-tetrazol-5-yl)pyridin-3-yl)phenyl)-5-(hydroxyfluoromethyl) oxazolidin-2-one phosphate]: the MIC50 in assay [1] and in assay [2] was 0.7 µg/mL in each case.
